Reference: article PMC9998865, “The toxic natural product tutin causes epileptic seizures in mice by activating calcineurin” (Signal Transduction and Targeted Therapy, 2023)

What was measured:
[1] = biological target: T1, calcineurin (CN) catalytic subunit A (CNA); serine/threonine-protein phosphatase 2B catalytic subunit alpha isoform (Homo sapiens, UniProt Q08209); assay: microscale thermophoresis (MST); supported by HDX-MS, CETSA and in vitro activation of CN; assay type: binding
T1 construct: gene PPP3CA; human CNA/CNB (CNA: M1-N370, CNB: 16-170), His-tagged, E. coli; with calcineurin B (CNB)

[2] = biological target: T2, calcineurin (CN) catalytic subunit A (CNA), CN-R254K (Homo sapiens, UniProt Q08209, R254K); assay: microscale thermophoresis (MST); assay type: binding
T2 construct: gene PPP3CA; human CNA/CNB (CNA: M1-N370, CNB: 16-170); with calcineurin B (CNB)

Compound `C=C(C)[C@@H]1[C@H]2OC(=O)[C@@H]1[C@]1(O)[C@H]3O[C@H]3[C@]3(CO3)[C@]1(C)[C@@H]2O` [tutin] has a Kd [1] of 0.28 ± 0.27 µM and a Kd [2] of 7.64 ± 4.48 µM.
